According to PMC4114247 (Cancer research, 2009):
“Also recorded” adds a separate entry of the source.

Assays:
[1] = Stability in blood plasma; type: in vitro ADME; details: data not shown
[2] = system: PC3 cells (PSMA negative); test: Direct binding to PC3 cells; details: 3 nM radioligand, 1 hour; PC3 cells lack PSMA
[3] = Stability in liver microsomes; type: in vitro ADME; details: data not shown
[4] = target: LNCaP cells (PSMA positive) (Homo sapiens, UniProt Q04609); test: Direct binding to LNCaP cells
LNCaP cells (PSMA positive), sequence (Q04609 whole entry): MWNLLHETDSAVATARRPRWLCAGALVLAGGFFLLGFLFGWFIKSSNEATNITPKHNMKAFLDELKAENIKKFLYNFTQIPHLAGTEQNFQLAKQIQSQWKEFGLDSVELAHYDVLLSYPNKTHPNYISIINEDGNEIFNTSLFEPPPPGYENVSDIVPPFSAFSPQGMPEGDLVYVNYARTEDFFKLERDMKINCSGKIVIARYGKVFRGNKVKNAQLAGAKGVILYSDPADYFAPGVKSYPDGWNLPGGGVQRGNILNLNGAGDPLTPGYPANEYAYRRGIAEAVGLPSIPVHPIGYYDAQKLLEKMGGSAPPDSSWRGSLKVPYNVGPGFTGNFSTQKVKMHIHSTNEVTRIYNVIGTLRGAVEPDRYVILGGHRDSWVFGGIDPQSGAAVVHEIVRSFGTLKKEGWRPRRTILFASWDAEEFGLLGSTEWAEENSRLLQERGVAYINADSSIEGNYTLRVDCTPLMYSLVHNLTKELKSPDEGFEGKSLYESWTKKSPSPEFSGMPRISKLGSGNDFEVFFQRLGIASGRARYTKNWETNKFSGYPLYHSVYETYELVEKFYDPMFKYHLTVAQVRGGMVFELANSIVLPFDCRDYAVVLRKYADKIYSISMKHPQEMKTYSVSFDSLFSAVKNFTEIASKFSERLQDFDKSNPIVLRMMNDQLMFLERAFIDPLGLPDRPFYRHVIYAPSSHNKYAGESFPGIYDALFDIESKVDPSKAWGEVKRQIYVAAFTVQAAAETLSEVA

LNCaP cells = test: Internalization into LNCaP cells; type: cell-based, human; details: 100 nM, 0–2 hours
[5] = system: NCr nude mice bearing LNCaP xenografts; test: Mouse tissue distribution, LNCaP xenografts; type: in vivo
[6] = system: mice bearing LNCaP xenografts; test: SPECT/CT imaging, LNCaP xenografts; type: in vivo, mouse; details: 4 hr after injection
PC3 PIP (PSMA +) tumors = test: SPECT/CT imaging, PC3 PIP; details: 2 hr after injection
[7] = system: NCr-nu/nu mice bearing PC3 xenografts; test: Mouse tissue distribution, PC3 xenografts; type: in vivo; details: PSMA deficient PC3 xenografts
[8] = co-injected with 50 mg/kg PMPA, 2 hours
[9] = male, athymic NCr-nu/nu, mouse, in vivo
[10] = male, athymic NCr-nu/nu, mouse, in vivo, 0.25 h
[11] = male, athymic NCr-nu/nu, mouse, in vivo, 1 h
[12] = male, athymic NCr-nu/nu, mouse, in vivo, 2 h
[13] = male, athymic NCr-nu/nu, mouse, in vivo, 4 h
[14] = male, athymic NCr-nu/nu, mouse, in vivo, 8 h
[15] = male, athymic NCr-nu/nu, mouse, in vivo, 24 h

O=C(O)CC[C@H](NC(=O)N[C@@H](CCCCNC(=O)Nc1ccc(I)cc1)C(=O)O)C(=O)O [[^123I]MIP-1095, (S)-2-(3-((S)-1-carboxy-5-(3-(4-iodophenyl)ureido)pentyl)ureido)pentanedioic acid]
Stability in blood plasma [1]: stable | Binding to PC3 cells [2]: no binding; also recorded: not to the PSMA deficient PC3 cells | Stability in liver microsomes [3]: stable | Binding to LNCaP cells in the presence of non-radiolabeled compound or PMPA ([4]; 3 nM radioligand with 10 µM non-radiolabeled compound or 10 µM PMPA): abolished; also recorded: inhibited | Binding to LNCaP cells ([4]; 3 nM radioligand, 1 hour, room temperature): bound | Internalization into LNCaP cells (LNCaP cells; 4 °C): but not at 4 °C | Internalization into LNCaP cells (LNCaP cells; 37 °C): internalized; also recorded: time dependent increase in radioactivity associated with the cellular pellet | Binding to LNCaP tumor xenografts with co-injected PMPA [5, 8]: blocked | Binding to kidneys with co-injected PMPA [5, 8]: blocked | Thyroid content (deiodination) [5, 9]: < 1 % of the total injected dose | tumor:blood ratio [5, 9]: > 100 | tumor:skeletal muscle ratio [5, 9]: > 100 | Ratio Tumor:Blood [5, 10]: 2.10 | Ratio Tumor:Skeletal Muscle [5, 10]: 8.79 | Tissue distribution: Adipose [5, 10]: 4.67 ± 4 %ID/g | Tissue distribution: Blood [5, 10]: 3.75 ± 0.7 %ID/g | Tissue distribution: Bone [5, 10]: 0.9 ± 0.27 %ID/g | Tissue distribution: Brain [5, 10]: 0.17 ± 0.05 %ID/g | Tissue distribution: Heart [5, 10]: 2.76 ± 0.54 %ID/g | Tissue distribution: Kidneys [5, 10]: 52.2 ± 12.2 %ID/g | Tissue distribution: Lg Intestine [5, 10]: 1.59 ± 1.45 %ID/g | Tissue distribution: Liver [5, 10]: 8.66 ± 1.54 %ID/g | Tissue distribution: Lungs [5, 10]: 4.53 ± 0.66 %ID/g | Tissue distribution: Sk.Muscle [5, 10]: 0.9 ± 0.2 %ID/g | Tissue distribution: Sm Intestine [5, 10]: 1.78 ± 1.05 %ID/g | Tissue distribution: Spleen [5, 10]: 9.65 ± 6.44 %ID/g | Tissue distribution: Stomach [5, 10]: 1.77 ± 0.52 %ID/g | Tissue distribution: Testes [5, 10]: 1.11 ± 0.51 %ID/g | Tissue distribution: Tumor (LNCaP xenograft) [5, 10]: 7.9 ± 2.43 %ID/g | Ratio Tumor:Blood [5, 11]: 10.6 | Ratio Tumor:Skeletal Muscle [5, 11]: 49.3 | Tissue distribution: Adipose [5, 11]: 2.34 ± 0.48 %ID/g | Tissue distribution: Blood [5, 11]: 1.95 ± 0.23 %ID/g | Tissue distribution: Bone [5, 11]: 0.55 ± 0.04 %ID/g | Tissue distribution: Brain [5, 11]: 0.06 ± 0.03 %ID/g | Tissue distribution: Heart [5, 11]: 1.31 ± 0.22 %ID/g | Tissue distribution: Kidneys [5, 11]: 65.3 ± 7.5 %ID/g | Tissue distribution: Lg Intestine [5, 11]: 0.87 ± 0.38 %ID/g | Tissue distribution: Liver [5, 11]: 11.3 ± 1.3 %ID/g | Tissue distribution: Lungs [5, 11]: 3.22 ± 0.68 %ID/g | Tissue distribution: Sk.Muscle [5, 11]: 0.42 ± 0.03 %ID/g | Tissue distribution: Sm Intestine [5, 11]: 4.4 ± 0.55 %ID/g | Tissue distribution: Spleen [5, 11]: 4.57 ± 0.77 %ID/g | Tissue distribution: Stomach [5, 11]: 3.02 ± 0.47 %ID/g | Tissue distribution: Testes [5, 11]: 0.86 ± 0.18 %ID/g | Tissue distribution: Tumor (LNCaP xenograft) [5, 11]: 20.7 ± 5.8 %ID/g | Ratio Tumor:Blood [5, 12]: 24.3 | Ratio Tumor:Skeletal Muscle [5, 12]: 80.8 | Tissue distribution: Adipose [5, 12]: 1.68 ± 1.15 %ID/g | Tissue distribution: Blood [5, 12]: 1.12 ± 0.48 %ID/g | Tissue distribution: Bone [5, 12]: 0.36 ± 0.11 %ID/g | Tissue distribution: Brain [5, 12]: 0.06 ± 0.02 %ID/g | Tissue distribution: Heart [5, 12]: 0.78 ± 0.28 %ID/g | Tissue distribution: Kidneys [5, 12]: 88.7 ± 23.8 %ID/g | Tissue distribution: Lg Intestine [5, 12]: 4 ± 2.82 %ID/g | Tissue distribution: Liver [5, 12]: 9.94 ± 2.53 %ID/g | Tissue distribution: Lungs [5, 12]: 2.3 ± 1.02 %ID/g | Tissue distribution: Sk.Muscle [5, 12]: 0.34 ± 0.17 %ID/g | Tissue distribution: Sm Intestine [5, 12]: 4.67 ± 0.86 %ID/g | Tissue distribution: Spleen [5, 12]: 3.73 ± 1.46 %ID/g | Tissue distribution: Stomach [5, 12]: 2.33 ± 1.79 %ID/g | Tissue distribution: Testes [5, 12]: 1.27 ± 0.31 %ID/g | Tissue distribution: Tumor (LNCaP xenograft) [5, 12]: 27.3 ± 3.4 %ID/g | Ratio Tumor:Blood [5, 13]: 40.6 | Ratio Tumor:Skeletal Muscle [5, 13]: 133 | Tissue distribution: Adipose [5, 13]: 0.86 ± 0.43 %ID/g | Tissue distribution: Blood [5, 13]: 0.84 ± 0.23 %ID/g | Tissue distribution: Bone [5, 13]: 0.25 ± 0.04 %ID/g | Tissue distribution: Brain [5, 13]: 0.44 ± 0.91 %ID/g | Tissue distribution: Heart [5, 13]: 0.53 ± 0.09 %ID/g | Tissue distribution: Kidneys [5, 13]: 77.5 ± 16.6 %ID/g | Tissue distribution: Lg Intestine [5, 13]: 7.55 ± 7.69 %ID/g | Tissue distribution: Liver [5, 13]: 7.82 ± 1.01 %ID/g | Tissue distribution: Lungs [5, 13]: 1.6 ± 0.53 %ID/g | Tissue distribution: Sm Intestine [5, 13]: 6.64 ± 3.19 %ID/g | Tissue distribution: Spleen [5, 13]: 2.06 ± 0.63 %ID/g | Tissue distribution: Stomach [5, 13]: 4.09 ± 1.36 %ID/g | Tissue distribution: Testes [5, 13]: 0.84 ± 0.18 %ID/g | Ratio Tumor:Blood [5, 14]: 57.5 | Ratio Tumor:Skeletal Muscle [5, 14]: 121 | Tissue distribution: Adipose [5, 14]: 2.63 ± 4.66 %ID/g | Tissue distribution: Blood [5, 14]: 0.49 ± 0.21 %ID/g | Tissue distribution: Bone [5, 14]: 0.28 ± 0.13 %ID/g | Tissue distribution: Brain [5, 14]: 0.07 ± 0.02 %ID/g | Tissue distribution: Heart [5, 14]: 0.38 ± 0.12 %ID/g | Tissue distribution: Kidneys [5, 14]: 54.8 ± 19.1 %ID/g | Tissue distribution: Lg Intestine [5, 14]: 12.28 ± 5.35 %ID/g | Tissue distribution: Liver [5, 14]: 3.79 ± 0.87 %ID/g | Tissue distribution: Lungs [5, 14]: 1.53 ± 1 %ID/g | Tissue distribution: Sk.Muscle [5, 14]: 0.23 ± 0.13 %ID/g | Tissue distribution: Sm Intestine [5, 14]: 3.66 ± 0.9 %ID/g | Tissue distribution: Spleen [5, 14]: 1.34 ± 0.63 %ID/g | Tissue distribution: Stomach [5, 14]: 4.43 ± 2.28 %ID/g | Tissue distribution: Testes [5, 14]: 0.6 ± 0.12 %ID/g | Tissue distribution: Tumor (LNCaP xenograft) [5, 14]: 28.1 ± 12.8 %ID/g | Ratio Tumor:Blood [5, 15]: 174 | Ratio Tumor:Skeletal Muscle [5, 15]: 304 | Tissue distribution: Adipose [5, 15]: 0.52 ± 0.25 %ID/g | Tissue distribution: Blood [5, 15]: 0.17 ± 0.1 %ID/g | Tissue distribution: Bone [5, 15]: 0.27 ± 0.19 %ID/g | Tissue distribution: Brain [5, 15]: 0.03 ± 0.01 %ID/g | Tissue distribution: Heart [5, 15]: 0.15 ± 0.08 %ID/g | Tissue distribution: Kidneys [5, 15]: 27 ± 26.2 %ID/g | Tissue distribution: Lg Intestine [5, 15]: 4.49 ± 3.09 %ID/g | Tissue distribution: Liver [5, 15]: 1.31 ± 0.63 %ID/g | Tissue distribution: Lungs [5, 15]: 0.55 ± 0.42 %ID/g | Tissue distribution: Sk.Muscle [5, 15]: 0.1 ± 0.04 %ID/g | Tissue distribution: Sm Intestine [5, 15]: 0.76 ± 0.48 %ID/g | Tissue distribution: Spleen [5, 15]: 0.45 ± 0.29 %ID/g | Tissue distribution: Stomach [5, 15]: 1.15 ± 1.2 %ID/g | Tissue distribution: Testes [5, 15]: 0.27 ± 0.23 %ID/g | Tissue distribution: Tumor (LNCaP xenograft) [5, 15]: 29.1 ± 15.1 %ID/g | Blood-brain barrier crossing ([5]; mouse, in vivo): do not cross the blood-brain barrier | Route of clearance ([5]; mouse, in vivo): by both urinary and hepatobiliary routes | SPECT/CT uptake in kidney and LNCaP tumor [6]: high uptake | SPECT/CT detection of PC3 PIP (PSMA +) tumors (PC3 PIP (PSMA +) tumors): detected | Localization to PC3 tumors [7]: not to the PSMA deficient PC3 tumors
